Test results from patent US12569437B2, “Disease-site-specific liposomal formulation” (Osaka University, priority 2017, dated 2026).
Marks after values point to notes of the source that are not given here.

Experiments:
Format in all cases: in vivo
[1] = test system: spontaneous dilated cardiomyopathy (J2N-k) hamster model; assay: Left ventricular wall thickness and area in short-axis sections of removed heart; conditions: week 8; for Left ventricle wall thickness (mm) Anterior / Left ventricle wall thickness (mm) Lateral / Left ventricle wall thickness (mm) Posterior / Left ventricle wall thickness (mm) Septum: middle section
Method: Dissection was performed as follows. After all of the blood was collected from the abdominal aorta, and the hamsters were euthanized under isoflurane anesthesia, the heart and lungs were removed and weighed. After the weights thereof were measured, the removed parts, including the left and right ventricles, were divided into three parts; i.e., apical, middle, and basal parts, at intervals of about 2 mm along the short axis.
When removed, the heart, including the left and right ventricles, was divided into three parts; i.e., apical, middle, and basal parts, at intervals of about 2 mm along the short axis. Among them, one section of the middle part was photographed, and the wall thickness at the anterior, lateral, posterior, and septum parts, and the left ventricular area were measured using image-editing software. For the wall thickness of the left ventricle, image-editing software was used, the number of pixels in the scale area of 1 mm^2 on the photograph was obtained, and the outer diameter and inner diameter of the entire left ventricle wall were traced to obtain each number of pixels to thus calculate the left ventricular area by ((the number of pixels of the outer diameter−the number of pixels of the inner diameter)/1 mm^2). Thereafter, the wall thickness of each portion was measured.
The section was divided into three parts; i.e., apical, middle, and basal areas, at intervals of about 2 mm. Thereafter, using one section on the middle side, the wall thickness at the anterior, lateral, posterior, and septum parts, and the left ventricular area were measured. For the wall thickness of the left ventricle, image-editing software was used, the number of pixels in the scale area of 1 mm^2 on the photograph was obtained, and the outer diameter and inner diameter of the entire left ventricle wall were traced to obtain each number of pixels to thus calculate the left ventricular wall area by ((the number of pixels of the outer diameter−the number of pixels of the inner diameter)/1 mm^2). Thereafter, the wall thickness of each portion was measured.

[2] = test system: BLM pulmonary fibrosis model mice; assay: Survival rate in BLM pulmonary fibrosis model mice; conditions: day 6 to 28 after BLM
Method: C57BL/6NCr female mice (7 weeks old) were anesthetized with sodium pentobarbital, and then intratracheally (intrapulmonary) administered with 20 μL of a bleomycin hydrochloride aqueous solution (BLM) twice (40 μL in total per animal). In a normal group (Normal), vehicle (physiological saline) was similarly intratracheally administered.
From 6 days to 28 days after the BLM administration, the test substance was administered to compare the survival rates. As the test substances, compound (A) (ONO-1301) was repeatedly orally administration twice daily, compound (A) (ONO-1301) was intravenously administered once weekly, and compound (A) (ONO-1301) was intratracheally administered once weekly. Further, Formulation 25 (ONO-1301Lipo) was intravenously administered once weekly, and Formulation 25 (ONO-1301Lipo) was intratracheally administered once weekly to analyze the DDS effect of Formulation 25 (ONO-1301Lipo) by comparing the survival rates.
From 6 days after the preparation of the lung injury model, the vehicle and compound (A) (3 mg/kg) were repeatedly orally administered twice daily for 23 days (the administration interval between morning and afternoon was 8 hours or more).
The administration was performed 6 days after the preparation of the lung injury model; after that, tail vein intravenous administration was performed once weekly (4 times in total, i.e., 6, 13, 20, and 27 or 28 days after the preparation of the model).
The administration was performed 6 days after the preparation of the lung injury model; after that, intratracheal administration was performed once weekly (4 times in total, i.e., 6, 13, 20, and 27 or 28 days after the preparation of the model). In normal Group 9 (Normal), physiological saline was administered in a similar manner.

[3] = test system: spontaneous dilated cardiomyopathy (J2N-k) hamster model; assay: Echocardiography (EF %, % FS) in spontaneous dilated cardiomyopathy hamsters; conditions: for % FS Pre / EF % Pre: at grouping; for % FS 4 W / EF % 4 W: week 4; for % FS 8 W / EF % 8 W: week 8
Method: Improvement in the DDS cardiac function in the spontaneous dilated cardiomyopathy (J2N-k) hamster model by intermittent intravenous administration of Formulation 25 and compound (A) (ONO-1301) once every two weeks was evaluated by comparing the left ventricular ejection fraction (hereinafter referred to as “EF %”), left ventricular fractional shortening (hereinafter referred to as “% FS”), and histological evaluation, based on echocardiography, taken as indices. As a positive control, a group in which compound (A) (ONO-1301) was repeatedly orally administered twice daily was created.
As a test substance, Formulation 25 was used by suspending and diluting with physiological saline. Compound (A) (ONO-1301) as a control was used by dissolving in an equivalent amount of aqueous NaOH, and diluting with physiological saline. For groups of oral administration of compound (A) (ONO-1301), administration was performed as a suspension in a 0.5% CMC-Na aqueous solution.
The spontaneous dilated cardiomyopathy (J2N-k) male hamsters, 20 weeks old at the start of administration, Japan SLC, Inc., were administered with the test substances for 8 weeks, and used for comparison.
Animals arrived at the age of 18 weeks were subjected to a 2-week quarantine/acclimation period, and then to the test at the time of grouping (test start date) at the age of 20 weeks. Thereafter, tests were conducted 4 and 8 weeks after the test start date, and dissection was performed 8 weeks after the test start date.
Echocardiography was performed at the time of grouping, and at week 4 and week 8 after the start of administration. The measurement was performed 3 times for each individual, and the average value of the measured data was referred to as the measurement results.

[4] = 3.0 mg/kg intravenous once/2 weeks

SMILES: O=C(O)COc1cccc2c1CCC=C2CCO/N=C(\c1ccccc1)c1cccnc1 [Compound (A), ({5-[2-({[(1E)-phenyl(pyridin-3-yl)methylene]amino}oxy)ethyl]-7,8-dihydronaphthalen-1-yl}oxy)acetic acid]
- Left ventricular area (Middle part) (mm^2) ([1]; 3.0 mg/kg i.v. once/2 weeks): 23.9 ± 4.5 mm^2
- Left ventricle wall thickness (mm) Anterior [1, 4]: 1.1 ± 0.6 mm
- Left ventricle wall thickness (mm) Lateral [1, 4]: 1.2 ± 0.3 mm
- Left ventricle wall thickness (mm) Posterior [1, 4]: 1.2 ± 0.2 mm
- Left ventricle wall thickness (mm) Septum [1, 4]: 1.0 ± 0.3 mm
- Left ventricle wall thickness (mm) Anterior ([1]; 3.0 mg/kg p.o. twice/day): 1.4 ± 0.5 mm
- Left ventricle wall thickness (mm) Lateral ([1]; 3.0 mg/kg p.o. twice/day): 1.5 ± 0.2 mm
- Left ventricle wall thickness (mm) Posterior ([1]; 3.0 mg/kg p.o. twice/day): 1.2 ± 0.4 mm
- Left ventricle wall thickness (mm) Septum ([1]; 3.0 mg/kg p.o. twice/day): 1.5 ± 0.3 mm
- Left ventricular area (Middle part) (mm^2) ([1]; 3.0 mg/kg p.o. twice/day): 26.4 ± 4.3 mm^2
- survival rate ([2]; intratracheal 1 mg/kg once/week): 20%
- survival rate ([2]; intravenous 3 mg/kg once/week): 40%
- survival rate ([2]; oral 3 mg/kg twice/day): 60%
- % FS Pre [3, 4]: 16.0 ± 2.1%
- EF % Pre [3, 4]: 38.8 ± 4.3%
- % FS 4 W [3, 4]: 16.1 ± 3.1%
- EF % 4 W [3, 4]: 35.7 ± 7.4%
- % FS 8 W [3, 4]: 12.3 ± 1.3^a %
- EF % 8 W [3, 4]: 30.8 ± 2.9^a %
- % FS Pre ([3]; 3.0 mg/kg p.o. twice/day): 18.2 ± 3.9%
- EF % Pre ([3]; 3.0 mg/kg p.o. twice/day): 43.0 ± 7.8%
- % FS 4 W ([3]; 3.0 mg/kg p.o. twice/day): 17.2 ± 7.2%
- EF % 4 W ([3]; 3.0 mg/kg p.o. twice/day): 40.4 ± 14.9%
- % FS 8 W ([3]; 3.0 mg/kg p.o. twice/day): 17.1 ± 4.5 %
- EF % 8 W ([3]; 3.0 mg/kg p.o. twice/day): 40.3 ± 9.2 %
